Holding throughout (type): cell-based
In experiment [1] the test system is Ba/F3-Flt3-transfected cells in the presence of 10 ng/ml murine IL3. In words: Ba/F3-Flt3 (plus IL3) cellular proliferation counterscreen, Alamar Blue. The following applies: for IC50: Mus musculus, read-out: BAF3-FLT3 (PLUS IL3) 384 well pIC50 (converted). The protocol: Ba/F3-Flt3 (Minus IL3 or Plus IL3) (Cellular Proliferation Assay)
(§1) In a 384 well plate, 100 nl of compound dilution in DMSO was sprayed before adding 50 μl cell culture medium (phenol red free RPMI-1640, 10% FBS, 2 mM L-Glutamine and 50 μg/ml Gentamycin) containing 20000 cells per well of Ba/F3-Flt3-transfected cells. Cells were put in an incubator at 37° C. and 5% CO2. After 24 hours, 10 μl of Alamar Blue solution (0.5 mM K3Fe(CN)6, 0.5 mM KaFe(CN)6, 0.15 mM Resazurin and 100 mM Phosphate Buffer) was added to the wells, incubated for 4 hours at 37° C. and 5% CO2 before RFU's (Relative Fluorescence Units) (ex. 540 nm., em. 590 nm.) were measured in a flurorescence plate reader.
(§2) As a counterscreen the same experiment was performed in the presence of 10 ng/ml murine IL3.
as §1, with “a 96” for “a 384”, “plate, 180” for “plate, 100 nl of compound dilution in DMSO was sprayed before adding 50”, “containing 10000” for “containing 20000”, “Ba/F3-Flt3-transfected cells were pipette and 20 μl of compound dilution in DMSO was added.” for “Ba/F3-Flt3-transfected cells.”, “hours, 40” for “hours, 10”

Experiment [2] concerns Ba/F3-FGFR1-transfected cells in the presence of 10 ng/ml murine IL3. Kind of experiment: Ba/F3-FGFR1 (plus IL3) cellular proliferation counterscreen, Alamar Blue. The following applies: plus IL3, 384 well; for IC50: Mus musculus, read-out: BAF3-FGFR 1 (PLUS IL3) 384 well pIC50 (converted). The protocol:
Ba/F3-FGFR1 (Minus IL3 or Plus IL3) (Cellular Proliferation Assay)
as §1, with “Ba/F3-FGFR1-transfected” for “Ba/F3-Flt3-transfected”
as §2
as §1, with “a 96” for “a 384”, “plate, 180” for “plate, 100 nl of compound dilution in DMSO was sprayed before adding 50”, “containing 10000” for “containing 20000”, “of Ba/F3-FGFR1-transfected cells were pipette and 20 μl of compound dilution in DMSO was added.” for “of Ba/F3-Flt3-transfected cells.”, “hours, 40” for “hours, 10”

For experiment [3], the system named is Ba/F3-FGFR3-transfected cells in the presence of 10 ng/ml murine IL3. In words: Ba/F3-FGFR3 (plus IL3) cellular proliferation counterscreen, Alamar Blue. The note with it: for IC50: Mus musculus. The protocol: Ba/F3-FGFR3 (Minus IL3 or Plus IL3) (Cellular Proliferation Assay)
as §1, with “Ba/F3-FGFR3-transfected” for “Ba/F3-Flt3-transfected”
as §2
as §1, with “a 96” for “a 384”, “plate, 180” for “plate, 100 nl of compound dilution in DMSO was sprayed before adding 50”, “containing 10000” for “containing 20000”, “of Ba/F3-FGFR3-transfected cells were pipette and 20 μl of compound dilution in DMSO was added.” for “of Ba/F3-Flt3-transfected cells.”, “hours, 40” for “hours, 10”
For orientation: Counterscreens check selectivity or assay interference.

[4] abbreviates: plus 10 ng/ml murine IL3, 384 well, read-out: BAF3-FGFR 3 (PLUS IL3) 384 well pIC50 (converted).
The mark [5] stands for this setting: plus IL3, 96 well, read-out: BAF3-FGFR 3 (PLUS IL3) 96 well pIC50 (converted).

This note sets out measurements from patent US10052320B2, “Substituted quinoxalines as FGFR kinase inhibitors” (ASTEX THERAPEUTICS LIMITED, priority 2011, dated 2018).

Like-named read-outs stand apart in the source and are kept apart here.

In the case of `COc1cc(OC)cc(N(CCN2CCOCC2)c2ccc3ncc(-c4ccc(NC(=O)N5CCOCC5)nc4)nc3c2)c1` [Compound 35], the IC50 in experiment [1] (plus 10 ng/ml murine IL3), in experiment [2] and in experiment [3] (setting [4]) was > 10 µM each time.
With `COc1cc(OC)cc(N(CCO)c2ccc3ncc(-c4ccnc(C(=O)NCCCCCO)c4)nc3c2)c1` [Compound 139], the IC50 in experiment [1] (plus 10 ng/ml murine IL3), in experiment [2] and in experiment [3] (setting [4]) was > 10 µM in each case.
As to `COc1cc(OC)cc(N(CC2CC2)c2ccc3ncc(N4CCOCC4)nc3c2)c1` [Compound 63], the IC50 in experiment [1] (plus IL3, 384 well) was > 10 µM; in experiment [2], > 10 µM; in experiment [3] (setting [5]) it was > 10 µM; in experiment [3] (plus IL3, 384 well, read-out: BAF3-FGFR 3 (PLUS IL3) 384 well pIC50 (converted)) it was > 10 µM.
With `COc1cc(OC)cc(N(CCCNCC(F)(F)F)c2ccc3ncc(-c4cnc(OC)nc4)nc3c2)c1` [Compound 26], the IC50 in experiment [1] (plus 10 ng/ml murine IL3), in experiment [2] and in experiment [3] (setting [4]) was > 10 µM throughout.
In the case of `COc1cc(OC)cc(N(CCNC(C)C)c2ccc3ncc(-n4cnc(CO)c4)nc3c2)c1` [Compound 77], the IC50 in experiment [1] (plus 10 ng/ml murine IL3), in experiment [2] and in experiment [3] (setting [4]) was > 10 µM throughout.
For the compound `COCC(CN(c1cc(OC)cc(OC)c1)c1ccc2ncc(-c3cccnc3)nc2c1)OC(C)=O` (single isomer, unassigned) [Compound 76], in experiment [1] (plus 10 ng/ml murine IL3), the “BAF3-FLT3 (PLUS IL3) 384 well pIC50” value was <5. In addition, the “BAF3-FGFR 1 (PLUS IL3) 384 well pIC50” value in experiment [2] is <5. Further, in experiment [3] (plus 10 ng/ml murine IL3, 384 well), the “BAF3-FGFR 3 (PLUS IL3) 384 well pIC50” value is given as <5.
As to `COc1cc(OC)cc(N(CCN2CCOCC2)c2ccc3ncc(-c4ccc(N)nc4)nc3c2)c1` [Compound 169], the IC50 in experiment [1] (plus 10 ng/ml murine IL3), in experiment [2] and in experiment [3] (setting [4]) was > 10 µM each time.
Regarding `COc1cc(OC)cc(N(CCNC(C)C)c2ccc3ncc(NCC4CCNCC4)nc3c2)c1` [Compound 161], the IC50 in experiment [1] (plus 10 ng/ml murine IL3), in experiment [2] and in experiment [3] (setting [4]) was > 10 µM throughout.
Take `COc1cc(OC)cc(N(CCO)c2ccc3ncc(-c4ccc(N5CCNCC5)nc4)nc3c2)c1` [Compound 165]: the IC50 was ~5.75 µM in experiment [1] (plus 10 ng/ml murine IL3), 6.61 µM in experiment [2] and > 10 µM in experiment [3] (setting [4]).
The like results for `COc1cc(OC)cc(N(CCCNCC(F)(F)F)c2ccc3ncc(C(=O)NCCN4CCOCC4)nc3c2)c1` [Compound 158] were, in that order, > 10 µM, > 10 µM and > 10 µM.
On the same counts, the results for `COc1cc(OC)cc(N(CCNC(C)C)c2ccc3ncc(-c4ccc(N5CCN(C)CC5)nc4)nc3c2)c1` [Compound 170] are 5.01 µM, 3.55 µM and 9.77 µM.
In the case of `COc1cc(OC)cc(N(CCN2CCN(C(C)=O)CC2)c2ccc3ncc(-c4ccc(N)nc4)nc3c2)c1` [Compound 68], the IC50 in experiment [1] (plus 10 ng/ml murine IL3), in experiment [2] and in experiment [3] (setting [4]) was > 10 µM each time.
With `COc1cc(OC)cc(N(CC2CC2)c2ccc3ncc(-c4c[nH]cn4)nc3c2)c1` [Compound 39], the IC50 in experiment [1] (plus 10 ng/ml murine IL3), in experiment [2], in experiment [3] (setting [4]) and in experiment [3] (setting [5]) was > 10 µM each time.
For the compound `COc1cc(OC)cc(N(CCCO)c2ccc3ncc(-c4ccnc(C(=O)NCCOCCO)c4)nc3c2)c1` [Compound 186], the IC50 in experiment [1] (plus 10 ng/ml murine IL3), in experiment [2] and in experiment [3] (setting [4]) was > 10 µM each time.
`COc1cc(OC)cc(N(CCNC(C)C)c2ccc3ncc(C(=O)N4CCOCC4)nc3c2)c1` [Compound 181]: the IC50 in experiment [1] (plus 10 ng/ml murine IL3), in experiment [2] and in experiment [3] (setting [4]) was > 10 µM each time.
With `COCC(O)CN(c1cc(OC)cc(OC)c1)c1ccc2ncc(-c3cccnc3)nc2c1` (single isomer, unassigned) [Compound 46], the IC50 in experiment [1] (plus 10 ng/ml murine IL3), in experiment [2] and in experiment [3] (setting [4]) was > 10 µM each time.
Consider `COc1cc(OC)cc(N(CCO)c2ccc3ncc(-c4ccc(N5CCN(C)CC5)nc4)nc3c2)c1` [Compound 163], for which the IC50 is > 10 µM in experiment [1] (plus 10 ng/ml murine IL3), ~10 µM in experiment [2] and > 10 µM in experiment [3] (setting [4]).
As to `COc1cc(OC)cc(N(CCO)c2ccc3ncc(C4=CCN(C(=O)OC(C)(C)C)CC4)nc3c2)c1` [Compound 178], the IC50 in experiment [1] (plus 10 ng/ml murine IL3), in experiment [2] and in experiment [3] (setting [4]) was > 10 µM in each case.
`COc1cc(OC)cc(N(CCCNCC(F)(F)F)c2ccc3ncc(-c4ccnc(Cl)c4)nc3c2)c1` [Compound 145]: the IC50 in experiment [1] (plus 10 ng/ml murine IL3), in experiment [2] and in experiment [3] (setting [4]) was > 10 µM throughout.
For the compound `COc1cc(OC)cc(N(CCNC(C)C)c2ccc3ncc(C(=O)NCCCN4CCN(C)CC4)nc3c2)c1` [Compound 159], the IC50 in experiment [1] (plus 10 ng/ml murine IL3), in experiment [2] and in experiment [3] (setting [4]) was > 10 µM each time.
On to `CO/N=C(\C)c1cnc2ccc(N(CCO)c3cc(OC)cc(OC)c3)cc2n1` [Compound 29], for which the IC50 in experiment [1] (plus 10 ng/ml murine IL3), in experiment [2] and in experiment [3] (setting [4]) was > 10 µM each time.
As for `COc1cc(OC)cc(N(CCCNCC(F)(F)F)c2ccc3ncc(-c4ccnc(C(=O)NCCCCCO)c4)nc3c2)c1` [Compound 150], the IC50 in experiment [1] (plus 10 ng/ml murine IL3), in experiment [2] and in experiment [3] (setting [4]) was > 10 µM throughout.
Turning to `COc1cc(OC)cc(N(CCNC(C)C)c2ccc3ncc(C(=O)NCCCN4CCCCC4)nc3c2)c1` [Compound 182], the IC50 is > 10 µM in experiment [1] (plus 10 ng/ml murine IL3), > 10 µM in experiment [2] and ~6.92 µM in experiment [3] (setting [4]).
For the compound `COc1cc(OC)cc(N(CCN)c2ccc3ncc(-c4ccn(C)c4)nc3c2)c1` [Compound 79], the IC50 in experiment [1] (plus 10 ng/ml murine IL3), in experiment [2] and in experiment [3] (setting [4]) was > 10 µM each time.
Regarding `COc1cc(OC)cc(N(CCO)c2ccc3ncc(C4=CCN(C(=O)OC(C)(C)C)C4)nc3c2)c1` [Compound 173], the IC50 in experiment [1] (plus 10 ng/ml murine IL3), in experiment [2] and in experiment [3] (setting [4]) was > 10 µM throughout.
